The test system of the assay is 941728-121-R-J1-PDC complex spheroid viability. Description: Anticancer human tumor 941728-121-R-J1-PDC patient-derived lung adenocarcinoma cell line growth inhibition [RAS]. To be noted: for viability, T/C: stronger effect = lower value. The source says: RAS pathway inhibitors in Combinations in Complex Spheroids
A high-throughput screen of multi-cell type tumor spheroids was designed to identify active combinations of RAS pathway inhibitors and targeted small molecules. Complex spheroids include a stromal component modeled by human endothelial cells (HUVEC) and fibroblasts modeled by human mesenchymal stem cells (MSCs). The concentration ranges selected for each drug and investigational agent were based upon clinically achievable concentrations if the clinical Cmax of the agent was known.
Compounds. The drugs and investigational agents: abemaciclib (NSC768073), cobimetinib (NSC768068), divarasib (GDC6063, NSC841802), docetaxel (NSC628503), GDC-1971 (RLY-1971, NSC841576), gemcitabine (NSC613327), inavolisib (NSC800729), ipatasertib (NSC767898), KB-0742 (NSC834161), MRTX-1133 (NSC836407), osimertinib (NSC779217), RMC-4630 (NSC839698), RMC-6236 (NSC851965), RMC-6291 (NSC852671), Ro-3306 (NSC812927), sapanisertib (NSC764658), SN-38 (NSC673596), staurosporine (NSC755774), SY5609 (NSC837396), and tovorafenib (DAY101, NSC766906), were obtained from the National Cancer Institute (NCI) Developmental Therapeutics Program Chemical Repository. The FDA-approved anticancer drug set is available from the NCI Developmental Therapeutics Program. […] The stock solutions were prepared in dimethyl sulfoxide (DMSO, Sigma-Aldrich, St. Louis, MO, cat. D2650) at 800-fold the tested concentration and stored at -70 degrees C prior to their use. All drugs and investigational agents were tested over a range starting from a high concentration at or near the clinical Cmax and decreasing in half-log increments. If the clinical Cmax for an agent had not been determined, the highest concentration tested was 10 microM.
Cell Culture. All cells were maintained in an incubator at 37 degrees C and 5% CO2 with 95% humidity. The PDC lines were cultured according to standard operating procedures established by the NCI PDMR. All PDCs were thawed and cultured in Matrigel-coated flasks prepared with a working solution of 1X Ham's F-12 nutrient mix, without supplementation (Invitrogen, Waltham, MA, cat. 11765054), 100 U/mL penicillin-streptomycin (Invitrogen, cat. 15140122), and 2.5% Matrigel (Corning Inc., Corning, NY, cat. 354248) for the first three passages. The 362531-283-R-J2-PDC and 782815-120-R-J1-PDC lines were cultured in 6C/Colon 1B media, which includes advanced DMEM/F-12 (Thermo Fisher Scientific, cat. 12634028), 10 mM HEPES (Thermo Fisher Scientific, cat. 15630080), 1X GlutaMAX supplement (Thermo Fisher Scientific, cat. 35050061), 0.1 mg/mL primocin (InvivoGen, San Diego, CA, cat. ant-pm-2), 10% defined fetal bovine serum, heat inactivated (HyClone Laboratories Inc., Logan, UT, cat. SH30070.03HI), 50% L-WRN conditioned media (ATCC, cat. CRL-3276), 1.25 mM N-Acetyl-L-cysteine (Sigma-Aldrich, cat. A9165), 10 mM nicotinamide (Sigma-Aldrich, cat. N0636), 1X B-27 supplement (Thermo Fisher Scientific, cat. 17504044), 1X N-2 supplement (Thermo Fisher Scientific, cat. 17502048), 50 ng/mL human EGF (Thermo Fisher Scientific, cat. PHG0311), and 10 microM Y-27632 dihydrochloride (Tocris Bioscience, cat. 1254). The K12877-001-R-J1-PDC line was cultured in 6I media, which includes all 6C/Colon 1B media plus 10 ng/mL human FGF-10 (PeproTech, cat. 100-26), 1 ng/mL human FGF-2 (PeproTech, cat. 100-18B), 1 µM prostaglandin E2 (Tocris Bioscience, cat. 2296), […] hydrocortisone (Sigma-Aldrich, cat. H4001), and […] bovine insulin (Sigma-Aldrich, cat. I6634). The K86415-001-R-J1-PDC line was cultured in 6D media, which includes all 6C/Colon 1B media components minus the L-WRN conditioned media. The 485176-168-R4-J1-PDC was cultured in PANC media, which includes all 6C/Colon 1B media plus 100 ng/mL human FGF-10 (PeproTech, cat. 100-26), 500 nM SB-431542 (Selleckchem, cat. S1067), and 10 nM gastrin (Tocris Bioscience, cat. 3006). […]

The term viability, T/C denotes the ratio of treated to control. One may read the IC50 as the concentration at which inhibition is half-maximal.

Structures are written as SMILES. Values joined by “and” are separate entries in the source; they are usually repeats but may differ in a detail not shown here. Identical values can stand only once. Bounds are passed on as bounds.
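Note: spheroids exposed to compounds for 7 days before readout.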

Turning to `CC(=O)OC12COC1CC(O)C1(C)C(=O)C(O)C3=C(C)C(OC(=O)C(O)C(NC(=O)OC(C)(C)C)c4ccccc4)CC(O)(C(OC(=O)c4ccccc4)C21)C3(C)C` (stereo unspecified), the viability, T/C is 51.2% [middle of 4 runs] (compound 0.0316 µM); 54.9% [middle of 4 runs] (compound 0.1 µM); 48.2% [middle of 4 runs] (compound 0.316 µM); 49% [middle of 4 runs] (compound 1 µM); 47.4% [middle of 4 runs] (compound 3.16 µM); 56.4% [middle of 4 runs] (compound 10 µM).

`CC1(O)CCCC1n1c(=O)c(C(F)F)cc2cnc(NC3CCN(S(C)(=O)=O)CC3)nc21` (stereo unspecified): the viability, T/C is, setting by setting: (compound 0.0316 µM) 87% [middle of 4 runs]; (compound 0.1 µM) 84.6% [middle of 4 runs]; (compound 0.316 µM) 75.3% [middle of 4 runs]; (compound 1 µM) 83.9% [middle of 4 runs]; (compound 10 µM) 51.8% [middle of 4 runs]. For the same molecule, the IC50 (curve of compound) was 5.94 µM and > 10 µM and 7.43 µM.

Regarding `CCC(CC)c1cc(NC2CCC(N)C2)n2nccc2n1` (stereo unspecified), the viability, T/C was 105% [middle of 4 runs] (compound 0.1 µM), 95.6% [middle of 4 runs] (compound 0.316 µM), 30.5% [middle of 4 runs] (compound 3.16 µM) and 44% [middle of 4 runs] (compound 10 µM). In addition, for the setting “curve of compound”, the IC50 is 2.03 µM and 2.53 µM and 2.05 µM.

As to `Cc1nc(N2CCC3(CC2)COC(C)C3N)c(CO)nc1Sc1ccnc(N)c1Cl` (stereo unspecified), the viability, T/C (compound 0.0316 µM) is 65.7% [middle of 4 runs]; the viability, T/C (compound 0.1 µM) was 55.1% [middle of 4 runs]; the viability, T/C (compound 0.316 µM) is 43.4% [middle of 4 runs]; the viability, T/C (compound 1 µM) is 41.8% [middle of 4 runs]; the viability, T/C (compound 3.16 µM) is 42.2% [middle of 4 runs]; the viability, T/C (compound 10 µM) was 40.1% [middle of 4 runs].

`NC1c2ccccc2OC12CCN(c1cnc3c(N4CCCc5ncccc54)n[nH]c3n1)CC2` (stereo unspecified): the viability, T/C (compound 0.0316 µM) is 48.2% [middle of 4 runs]; the viability, T/C (compound 0.1 µM) is 44.8% [middle of 4 runs]; the viability, T/C (compound 0.316 µM) was 36% [middle of 4 runs]; the viability, T/C (compound 1 µM) was 47.1% [middle of 4 runs]; the viability, T/C (compound 3.16 µM) is 41.8% [middle of 4 runs]; the viability, T/C (compound 10 µM) is 49% [middle of 4 runs]. Further, under “curve of compound”, the half-inhibitory concentration (IC50) is less than 0.0316 µM.

As for `Nc1ccn(C2OC(CO)C(O)C2(F)F)c(=O)n1` (stereo unspecified), the viability, T/C runs as follows: (compound 0.0316 µM) 56.4% [middle of 4 runs]; (compound 0.1 µM) 57.3% [middle of 4 runs]; (compound 0.316 µM) 52.7% [middle of 4 runs]; (compound 1 µM) 43% [middle of 4 runs].

Regarding `C=CC(=O)Nc1cc(Nc2nccc(-c3cn(C)c4ccccc34)n2)c(OC)cc1N(C)CCN(C)C` + C#Cc1c(F)ccc2cc(O)cc(-c3ncc4c(N5CC6CCC(C5)N6)nc(OCC56CCCN5CC(F)C6)nc4c3F)c12, the 50% inhibitory concentration (IC50) (curve of first compound, second compound 0.0316 µM) amounted to 0.142 µM; the IC50 (curve of first compound, second compound 0.1 µM) is 0.0547 µM; the IC50 (curve of first compound, second compound 0.316 µM) amounted to 0.0168 µM; the IC50 (curve of first compound, second compound 1 µM) is less than 0.00316 µM; the IC50 (curve of first compound, second compound 3.16 µM) was less than 0.00316 µM; the IC50 (curve of first compound, second compound 10 µM) is less than 0.00316 µM. For the same molecule, the viability, T/C by setting is: (second compound 0.0316 µM, first compound 0.00316 µM) 79.4%; (second compound 0.0316 µM, first compound 0.01 µM) 70.4%; (second compound 0.0316 µM, first compound 0.0316 µM) 61.4%; (second compound 0.0316 µM, first compound 0.1 µM) 51%; (second compound 0.0316 µM, first compound 0.316 µM) 44.9%; (second compound 0.0316 µM, first compound 1 µM) 39.5%. Further, the viability, T/C is 78.5% (second compound 0.1 µM, first compound 0.00316 µM); 65.6% (second compound 0.1 µM, first compound 0.01 µM); 58% (second compound 0.1 µM, first compound 0.0316 µM); 40.9% (second compound 0.1 µM, first compound 0.1 µM); 42.1% (second compound 0.1 µM, first compound 0.316 µM); 36.4% (second compound 0.1 µM, first compound 1 µM). Further, the viability, T/C is, setting by setting: (second compound 0.316 µM, first compound 0.00316 µM) 56.1%; (second compound 0.316 µM, first compound 0.01 µM) 57.7%; (second compound 0.316 µM, first compound 0.0316 µM) 41.7%; (second compound 0.316 µM, first compound 0.1 µM) 36.6%; (second compound 0.316 µM, first compound 0.316 µM) 32.8%; (second compound 0.316 µM, first compound 1 µM) 33.8%. Besides, the viability, T/C by setting is: (second compound 1 µM, first compound 0.00316 µM) 35.2%; (second compound 1 µM, first compound 0.01 µM) 39.1%; (second compound 1 µM, first compound 0.0316 µM) 31.6%; (second compound 1 µM, first compound 0.1 µM) 29.2%; (second compound 1 µM, first compound 0.316 µM) 29.5%; (second compound 1 µM, first compound 1 µM) 30%. Also, the viability, T/C is, setting by setting: (second compound 3.16 µM, first compound 0.00316 µM) 30.3%; (second compound 3.16 µM, first compound 0.01 µM) 26.5%; (second compound 3.16 µM, first compound 0.0316 µM) 26.5%; (second compound 3.16 µM, first compound 0.1 µM) 26.1%; (second compound 3.16 µM, first compound 0.316 µM) 26%; (second compound 3.16 µM, first compound 1 µM) 24.6%. The viability, T/C was 22.1% (second compound 10 µM, first compound 0.00316 µM); 22.3% (second compound 10 µM, first compound 0.01 µM); 19.7% (second compound 10 µM, first compound 0.0316 µM); 19.3% (second compound 10 µM, first compound 0.1 µM); 20% (second compound 10 µM, first compound 0.316 µM); 17.5% (second compound 10 µM, first compound 1 µM).

Source of the values: PubChem BioAssay AID2060896 (Molecular Pharmacology Branch, DTP, NCI, 2025).
